PubChem BioAssay AID218 (DTP/NCI, 2004)
Values joined by “and” are separate entries in the source; they are usually repeats but may differ in a detail not shown here. Equal entries are not always repeated. Non-standard residues stand in square brackets, D forms with d. Residues, ends and D or L forms follow the SMILES beside them. Ac5c = NC1(C(=O)O)CCCC1

Test system: C57BL/6 mice, Adenocarcinoma 755 sc, tumor weight T/C
Assay: NCI In Vivo Anticancer Drug Screen. Data for tumor model Adenocarcinoma 755 (subcutaneous) in C57BL/6 mice
Conditions: endpoint: mean tumor weight, higher = larger tumour
Protocol: The antitumor activity of compounds was measured in mice bearing transplantable tumors. Survival or tumor size were measured and the results are expressed as the measurement made in the treated group (T) divided by the measurement made in the vehicle treated control group (C). The tumor model used in this assay is Adenocarcinoma 755 (subcutaneous) in C57BL/6 mice

[1] = dose: 2.0 mg/kg/injection, schedule: Q01DX011 (ip), vehicle: carboxymethylcellulose (CMC)
[2] = dose: 50.0 mg/kg/injection, schedule: Q01DX011 (ip), vehicle: saline
[3] = dose: 25.0 mg/kg/injection, schedule: Q01DX011 (ip), vehicle: carboxymethylcellulose (CMC)
[4] = dose: 50.0 mg/kg/injection, schedule: Q01DX011 (ip), vehicle: carboxymethylcellulose (CMC)
[5] = dose: 150.0 mg/kg/injection, schedule: Q01DX011 (ip), vehicle: saline
[6] = dose: 300.0 mg/kg/injection, schedule: Q01DX011 (ip), vehicle: saline
[7] = dose: 5.0 mg/kg/injection, schedule: Q01DX011 (ip), vehicle: saline
[8] = dose: 10.0 mg/kg/injection, schedule: Q01DX011 (ip), vehicle: saline
[9] = dose: 15.0 mg/kg/injection, schedule: Q01DX011 (ip), vehicle: saline
[10] = dose: 10.0 mg/kg/injection, schedule: Q01DX011 (ip), vehicle: carboxymethylcellulose (CMC)
[11] = dose: 0.5 mg/kg/injection, schedule: Q01DX011 (ip), vehicle: carboxymethylcellulose (CMC)
[12] = dose: 1.0 mg/kg/injection, schedule: Q01DX011 (ip), vehicle: carboxymethylcellulose (CMC)
[13] = dose: 100.0 mg/kg/injection, schedule: Q01DX011 (ip), vehicle: saline

[N-]=[N+]=CC(=O)CCC(N)C(=O)O (stereo unspecified) was tested, and the T/C (dose: 0.04 mg/kg/injection, schedule: Q01DX011 (ip), vehicle: saline) was 110 % of control, the T/C (dose: 0.05 mg/kg/injection, schedule: Q01DX011 (ip), vehicle: saline) was 22 % of control and the T/C (dose: 0.08 mg/kg/injection, schedule: Q01DX011 (ip), vehicle: saline) was 46 % of control. For the same molecule, the T/C (dose: 25.0 micrograms/kg/injection, schedule: Q01DX011 (ip), vehicle: saline) was 39 % of control and the T/C (dose: 50.0 micrograms/kg/injection, schedule: Q01DX011 (ip), vehicle: saline) was 45 % of control.
For Nc1nc(F)nc2c1ncn2C1OC(CO)C(O)C1O (stereo unspecified), the T/C [1] was 87 % of control.
O=C(O)C(=O)CF was tested, and the T/C [2] was 63 % of control.
For Cc1ccc(N2CCN(CCCN3CCN(c4ccc(Cl)cc4)CC3)CC2)cc1, the T/C (dose: 3.1 mg/kg/injection, schedule: Q01DX011 (ip), vehicle: carboxymethylcellulose (CMC)) was 93 % of control, the T/C (dose: 6.25 mg/kg/injection, schedule: Q01DX011 (ip), vehicle: carboxymethylcellulose (CMC)) was 83 % of control and the T/C (dose: 12.5 mg/kg/injection, schedule: Q01DX011 (ip), vehicle: carboxymethylcellulose (CMC)) was 90 % of control. For the same molecule, the T/C [3] was 52 % of control and the T/C [4] was 43 % of control.
For CCOc1ccccc1C(=O)Nc1ccc(Br)cc1, the T/C (dose: 75.0 mg/kg/injection, schedule: Q01DX011 (ip), vehicle: saline) was 94 % of control, the T/C [5] was 98 % of control and the T/C [6] was 75 % of control. For the same molecule, the T/C (dose: 600.0 mg/kg/injection, schedule: Q01DX011 (ip), vehicle: saline) was 51 % of control.
Clc1ccc(N2CCN(CCCN3CCN(c4cccc(Cl)c4)CC3)CC2)cc1 was tested, and the T/C (dose: 7.5 mg/kg/injection, schedule: Q01DX011 (ip), vehicle: carboxymethylcellulose (CMC)) was 43 % of control, the T/C (dose: 15.0 mg/kg/injection, schedule: Q01DX011 (ip), vehicle: carboxymethylcellulose (CMC)) was 38 % of control and the T/C (dose: 30.0 mg/kg/injection, schedule: Q01DX011 (ip), vehicle: carboxymethylcellulose (CMC)) was 54 % of control.
CSc1ncnc2c1ncn2C1OC(CO)C(O)C1O (stereo unspecified) was tested, and the T/C [7] was 78 % of control, the T/C [8] was 50 % of control and the T/C [9] was 67 % of control.
In the case of CC1CN1P(=S)(N1CC1C)N1CC1C (stereo unspecified), the T/C (dose: 1.25 mg/kg/injection, schedule: Q01DX011 (ip), vehicle: saline) is reported as 67 % of control, the T/C (dose: 2.5 mg/kg/injection, schedule: Q01DX011 (ip), vehicle: saline) is reported as 78 % of control and the T/C [7] is reported as 91 % of control. For the same molecule, the T/C [8] was 73 % of control.
With CC[N+](CC)(CC)CCO the T/C (dose: 5.0 mg/kg/injection, schedule: Q02DX006 (ip), vehicle: saline) was 51 % of control, the T/C (dose: 10.0 mg/kg/injection, schedule: Q02DX006 (ip), vehicle: saline) was 25 % of control and the T/C (dose: 15.0 mg/kg/injection, schedule: Q02DX006 (ip), vehicle: saline) was 33 % of control.
O=C(O)CCCc1ccc(N(CCCl)CCCl)cc1 was tested, and the T/C (dose: 1.0 mg/kg/injection, schedule: Q01DX011 (ip), vehicle: saline) was 73 % of control, the T/C (dose: 4.0 mg/kg/injection, schedule: Q01DX011 (ip), vehicle: saline) was 80 % of control and the T/C (dose: 8.0 mg/kg/injection, schedule: Q01DX011 (ip), vehicle: saline) was 51 % of control. For the same molecule, the T/C (dose: 16.0 mg/kg/injection, schedule: Q01DX011 (ip), vehicle: saline) was 98 % of control.
In the case of O=P1(N(CCF)CCF)NCCCO1 (stereo unspecified), the T/C (dose: 0.94 mg/kg/injection, schedule: Q01DX011 (ip), vehicle: saline) is reported as 40 % of control, the T/C (dose: 1.88 mg/kg/injection, schedule: Q01DX011 (ip), vehicle: saline) is reported as 56 % of control and the T/C (dose: 3.75 mg/kg/injection, schedule: Q01DX011 (ip), vehicle: saline) is reported as 22 % of control.
c1ccc2nc(-c3cc4ccccc4s3)ccc2c1 was tested, and the T/C [6] was 11 % of control.
For CC(=O)OCC(=O)[C@@]1(O)CC[C@H]2[C@@H]3CCC4=CC(=O)CC[C@]4(C)[C@H]3C(=O)C[C@@]21C, the T/C (dose: 40.0 mg/kg/injection, schedule: Q01DX011 (sc), vehicle: saline) was 24 % of control, the T/C (dose: 45.0 mg/kg/injection, schedule: Q01DX011 (sc), vehicle: saline) was 43 % of control and the T/C (dose: 50.0 mg/kg/injection, schedule: Q01DX011 (sc), vehicle: saline) was 16 % of control. The T/C (dose: 60.0 mg/kg/injection, schedule: Q01DX011 (sc), vehicle: saline) was 15 % of control and 39 % of control and the T/C (dose: 100.0 mg/kg/injection, schedule: Q01DX011 (sc), vehicle: saline) was 8 % of control.
For CCCCNc1nc(N)nc2nc[nH]c12, the T/C (dose: 5.0 mg/kg/injection, schedule: Q01DX011 (ip), vehicle: carboxymethylcellulose (CMC)) was 106 % of control, the T/C [10] was 104 % of control and the T/C [3] was 123 % of control. The T/C [4] was 78 % of control and the T/C (dose: 100.0 mg/kg/injection, schedule: Q01DX011 (ip), vehicle: carboxymethylcellulose (CMC)) was 72 % of control.
With O=c1[nH]cc(F)c(=O)[nH]1 the T/C [10] was 7 % of control and the T/C (dose: 20.0 mg/kg/injection, schedule: Q01DX011 (ip), vehicle: carboxymethylcellulose (CMC)) was 61 % of control.
With Nc1nc(=S)c2ncn(C3OC(CO)C(O)C3O)c2[nH]1 (stereo unspecified) the T/C [11] was 48 % of control, the T/C [12] was 13 % of control and the T/C [1] was 2 % of control.
In the case of CCCNc1ncnc2[nH]ncc12, the T/C [8] is reported as 62 % of control and the T/C [9] is reported as 39 % of control.
With CS(=O)(=O)OCCCCCCCCCOS(C)(=O)=O the T/C (dose: 0.25 mg/kg/injection, schedule: Q01DX011 (ip), vehicle: carboxymethylcellulose (CMC)) was 64 % of control, the T/C [11] was 93 % of control and the T/C [12] was 162 % of control. For the same molecule, the T/C [1] was 95 % of control and the T/C (dose: 4.0 mg/kg/injection, schedule: Q01DX011 (ip), vehicle: carboxymethylcellulose (CMC)) was 84 % of control.
In the case of CCSCCC(N)C(=O)O (stereo unspecified), the T/C [2] is reported as 113 % of control, the T/C (dose: 75.0 mg/kg/injection, schedule: Q02DX006 (ip), vehicle: other) is reported as 67 % of control and the T/C [13] is reported as 67 % of control and 78 % of control. For the same molecule, the T/C (dose: 100.0 mg/kg/injection, schedule: Q02DX006 (ip), vehicle: other) was 65 % of control and the T/C [5] was 72 % of control.
For NNc1nc2nc[nH]c2c(=O)[nH]1, the T/C [2] was 35 % of control.
In the case of CS(=O)(=O)OCCC(=O)N1CCN(C(=O)CCOS(C)(=O)=O)CC1, the T/C (dose: 6.25 mg/kg/injection, schedule: Q01DX011 (ip), vehicle: methylcellulose (MC)) is reported as 83 % of control, the T/C (dose: 12.5 mg/kg/injection, schedule: Q01DX011 (ip), vehicle: methylcellulose (MC)) is reported as 86 % of control and the T/C (dose: 25.0 mg/kg/injection, schedule: Q01DX011 (ip), vehicle: methylcellulose (MC)) is reported as 55 % of control.
NCC(=O)NC1(C(=O)O)CCCC1 (H-Gly-[Ac5c]-OH) was tested, and the T/C (dose: 25.0 mg/kg/injection, schedule: Q01DX011 (ip), vehicle: saline) was 58 % of control, the T/C [2] was 37 % of control and the T/C [13] was 9 % of control.
